Laboratory results as given in patent US20260071190A1, “SARS CORONAVIRUS 2 R[…] […] GENES, DERIVED FROM GH CLADE SARS CORONAVIRUS 2 OF KOREAN ISOLATE, AND THE PRODUCTION METHOD THEREFOR” (RpexBio, Inc., priority 2022, published 2026).

System: rSARS-COV-2/YS006_Nluc P2 virus (YS006_spike)
Type: cell-based, SARS coronavirus 2

In the case of `CC(C)(C)[C@H](NC(=O)C(F)(F)F)C(=O)N1C[C@H]2[C@@H]([C@H]1C(=O)N[C@H](C#N)C[C@@H]1CCNC1=O)C2(C)C` [PF-07321332], the “antiviral activity against YS006_spike reporter virus” value was “high antiviral activity” and the “inhibitory effect compared among cell lines” value (A549_ACE2 cells versus Calu-3 and Vero E6, FIG. 6B) was “strongest inhibitory effect”.
